PMC5303205, “Comparative studies on the multi-component pharmacokinetics of Aristolochiae Fructus and honey-fried Aristolochiae Fructus extracts after oral administration in rats” (BMC Complementary and Alternative Medicine, 2017)
Read-outs that look alike come from different tables or passages of the source.

Assays:
[1] = Multi-component pharmacokinetics of AAs in rats after oral administration of AF and HAF extracts (HPLC-MS/MS of plasma); set-up: species or system Sprague–Dawley (SD) rats; conditions: Sprague-Dawley, rat, in vivo
In short: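 Rats were fasted 12 h and given AF or HAF extracts orally in 0.5% CMC–Na at 3.0, 8.0 or 15.0 mg/kg (as AA I), n = 6 per group. Ocular-vein plasma was sampled 0–24 h, ethyl-acetate extracted with internal standard, and analysed by C18 HPLC-MS/MS (positive ESI, MRM). Cmax was observed and other parameters model-fitted.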

[2] = Stability of AAs in rat plasma (QC samples, HPLC-MS/MS); assay type: in vitro ADME; conditions: n = 5; for Short-term stability (RSD/%): fresh rat plasma at room temperature for 24 h before sample preparation; for Post-preparation stability (RSD/%): prepared rat plasma samples at room temperature for 24 h; for Long-term stability (RSD/%): rat plasma stored at –20 °C for 14 days; for Freeze-thaw stability (RSD/%): rat plasma, three freeze-thaw cycles (–20 °C 24 h, thawed at room temperature)
In short: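 Rat plasma QC samples tested over three freeze-thaw cycles (–20 °C 24 h, thawed at room temperature), 14 days at –20 °C, 24 h at room temperature before preparation, and 24 h post-preparation, by HPLC-MS/MS. Mean concentrations compared with freshly prepared samples; bias within ±15% accepted.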

[3] = 3 mg/kg, AF extract, low dose (3.0 mg/kg as AA I), analyte dose mg/kg: AA I 3.0, AA II 0.21, AA C 1.42, AA D 1.60, 7-OH AA I 2.33, n = 6
[4] = 3 mg/kg, HAF extract, low dose (3.0 mg/kg as AA I), analyte dose mg/kg: AA I 3.0, AA II 0.26, AA C 1.53, AA D 1.51, 7-OH AA I 2.48, n = 6
[5] = 8 mg/kg, AF extract, mid dose (8.0 mg/kg as AA I), analyte dose mg/kg: AA I 8.0, AA II 0.56, AA C 3.78, AA D 4.26, 7-OH AA I 6.22, n = 6
[6] = 8 mg/kg, HAF extract, mid dose (8.0 mg/kg as AA I), analyte dose mg/kg: AA I 8.0, AA II 0.69, AA C 4.09, AA D 4.03, 7-OH AA I 6.62, n = 6
[7] = 15 mg/kg, AF extract, high dose (15.0 mg/kg as AA I), analyte dose mg/kg: AA I 15.0, AA II 1.05, AA C 7.09, AA D 8.00, 7-OH AA I 11.66, n = 6
[8] = 15 mg/kg, HAF extract, high dose (15.0 mg/kg as AA I), analyte dose mg/kg: AA I 15.0, AA II 1.29, AA C 7.66, AA D 7.56, 7-OH AA I 12.41, n = 6
[9] = high QC conc ng/mL: AA I 1830, AA II 3200, AA C 2980, AA D 3680, 7-OH AA I 3280
[10] = low QC conc ng/mL: AA I 1.83, AA II 8.00, AA C 186.3, AA D 36.8, 7-OH AA I 82.0
[11] = middle QC conc ng/mL: AA I 457.5, AA II 400, AA C 372.5, AA D 460, 7-OH AA I 410

COc1cccc2c1cc([N+](=O)[O-])c1c(C(=O)O)cc3c(c12)OCO3 [AA I]
AUC(0-inf) [1, 3]: 6080 ± 1260 ng·h/mL
Cmax [1, 3]: 1700 ± 571 ng/mL
Tmax [1, 3]: 0.5 ± 0.09 h
CL/F ([1]; 3 mg/kg, AF extract, low dose (3.0 mg/kg as AA I), analyte dose mg/kg: AA I 3.0, AA II 0.21, AA C 1.42, AA D 1.60, 7-OH AA I 2.33, n = 6, read-out: CLz/F (converted)): 9.5 mL/min/kg
Vd/F ([1]; 3 mg/kg, AF extract, low dose (3.0 mg/kg as AA I), analyte dose mg/kg: AA I 3.0, AA II 0.21, AA C 1.42, AA D 1.60, 7-OH AA I 2.33, n = 6, read-out: Vz/F): 2.85 ± 0.15 L/kg
half-life ([1]; 3 mg/kg, AF extract, low dose (3.0 mg/kg as AA I), analyte dose mg/kg: AA I 3.0, AA II 0.21, AA C 1.42, AA D 1.60, 7-OH AA I 2.33, n = 6, read-out: t 1/2z (converted)): 3.5 ± 0.5 h
AUC(0-inf) [1, 4]: 5230 ± 896 ng·h/mL
Cmax [1, 4]: 1070 ± 223 ng/mL
Tmax [1, 4]: 0.39 ± 0.08 h
CL/F ([1]; 3 mg/kg, HAF extract, low dose (3.0 mg/kg as AA I), analyte dose mg/kg: AA I 3.0, AA II 0.26, AA C 1.53, AA D 1.51, 7-OH AA I 2.48, n = 6, read-out: CLz/F (converted)): 9.83 mL/min/kg
Vd/F ([1]; 3 mg/kg, HAF extract, low dose (3.0 mg/kg as AA I), analyte dose mg/kg: AA I 3.0, AA II 0.26, AA C 1.53, AA D 1.51, 7-OH AA I 2.48, n = 6, read-out: Vz/F): 2.75 ± 0.24 L/kg
half-life ([1]; 3 mg/kg, HAF extract, low dose (3.0 mg/kg as AA I), analyte dose mg/kg: AA I 3.0, AA II 0.26, AA C 1.53, AA D 1.51, 7-OH AA I 2.48, n = 6, read-out: t 1/2z (converted)): 3.22 ± 0.46 h
AUC(0-inf) [1, 5]: 12800 ± 1860 ng·h/mL
Cmax [1, 5]: 3820 ± 450 ng/mL
Tmax [1, 5]: 0.56 ± 0.09 h
CL/F ([1]; 8 mg/kg, AF extract, mid dose (8.0 mg/kg as AA I), analyte dose mg/kg: AA I 8.0, AA II 0.56, AA C 3.78, AA D 4.26, 7-OH AA I 6.22, n = 6, read-out: CLz/F (converted)): 10.8 mL/min/kg
Vd/F ([1]; 8 mg/kg, AF extract, mid dose (8.0 mg/kg as AA I), analyte dose mg/kg: AA I 8.0, AA II 0.56, AA C 3.78, AA D 4.26, 7-OH AA I 6.22, n = 6, read-out: Vz/F): 5.4 ± 0.48 L/kg
half-life ([1]; 8 mg/kg, AF extract, mid dose (8.0 mg/kg as AA I), analyte dose mg/kg: AA I 8.0, AA II 0.56, AA C 3.78, AA D 4.26, 7-OH AA I 6.22, n = 6, read-out: t 1/2z (converted)): 5.58 ± 0.65 h
AUC(0-inf) [1, 6]: 8990 ± 1780 ng·h/mL
Cmax [1, 6]: 2000 ± 313 ng/mL
Tmax [1, 6]: 0.42 ± 0.08 h
CL/F ([1]; 8 mg/kg, HAF extract, mid dose (8.0 mg/kg as AA I), analyte dose mg/kg: AA I 8.0, AA II 0.69, AA C 4.09, AA D 4.03, 7-OH AA I 6.62, n = 6, read-out: CLz/F (converted)): 11.3 mL/min/kg
Vd/F ([1]; 8 mg/kg, HAF extract, mid dose (8.0 mg/kg as AA I), analyte dose mg/kg: AA I 8.0, AA II 0.69, AA C 4.09, AA D 4.03, 7-OH AA I 6.62, n = 6, read-out: Vz/F): 4.58 ± 0.37 L/kg
half-life ([1]; 8 mg/kg, HAF extract, mid dose (8.0 mg/kg as AA I), analyte dose mg/kg: AA I 8.0, AA II 0.69, AA C 4.09, AA D 4.03, 7-OH AA I 6.62, n = 6, read-out: t 1/2z (converted)): 4.72 ± 0.52 h
AUC(0-inf) [1, 7]: 26800 ± 3260 ng·h/mL
Cmax [1, 7]: 5890 ± 426 ng/mL
Tmax [1, 7]: 0.69 ± 0.1 h
CL/F ([1]; 15 mg/kg, AF extract, high dose (15.0 mg/kg as AA I), analyte dose mg/kg: AA I 15.0, AA II 1.05, AA C 7.09, AA D 8.00, 7-OH AA I 11.66, n = 6, read-out: CLz/F (converted)): 14.5 mL/min/kg
Vd/F ([1]; 15 mg/kg, AF extract, high dose (15.0 mg/kg as AA I), analyte dose mg/kg: AA I 15.0, AA II 1.05, AA C 7.09, AA D 8.00, 7-OH AA I 11.66, n = 6, read-out: Vz/F): 7.13 ± 0.57 L/kg
half-life ([1]; 15 mg/kg, AF extract, high dose (15.0 mg/kg as AA I), analyte dose mg/kg: AA I 15.0, AA II 1.05, AA C 7.09, AA D 8.00, 7-OH AA I 11.66, n = 6, read-out: t 1/2z (converted)): 5.46 ± 0.53 h
AUC(0-inf) [1, 8]: 11800 ± 1770 ng·h/mL
Cmax [1, 8]: 3470 ± 352 ng/mL
Tmax [1, 8]: 0.47 ± 0.08 h
CL/F ([1]; 15 mg/kg, HAF extract, high dose (15.0 mg/kg as AA I), analyte dose mg/kg: AA I 15.0, AA II 1.29, AA C 7.66, AA D 7.56, 7-OH AA I 12.41, n = 6, read-out: CLz/F (converted)): 12 mL/min/kg
Vd/F ([1]; 15 mg/kg, HAF extract, high dose (15.0 mg/kg as AA I), analyte dose mg/kg: AA I 15.0, AA II 1.29, AA C 7.66, AA D 7.56, 7-OH AA I 12.41, n = 6, read-out: Vz/F): 5.53 ± 0.52 L/kg
half-life ([1]; 15 mg/kg, HAF extract, high dose (15.0 mg/kg as AA I), analyte dose mg/kg: AA I 15.0, AA II 1.29, AA C 7.66, AA D 7.56, 7-OH AA I 12.41, n = 6, read-out: t 1/2z (converted)): 5.32 ± 0.54 h
Short-term stability (RSD/%) [2, 9]: 6.5%
Short-term stability (RSD/%) [2, 10]: 0.58%
Short-term stability (RSD/%) [2, 11]: 8.7%
Post-preparation stability (RSD/%) [2, 9]: 4.5%
Post-preparation stability (RSD/%) [2, 10]: 0.65%
Post-preparation stability (RSD/%) [2, 11]: 2.0%
Long-term stability (RSD/%) [2, 9]: 7.6%
Long-term stability (RSD/%) [2, 10]: 0.28%
Long-term stability (RSD/%) [2, 11]: 6.9%
Freeze-thaw stability (RSD/%) [2, 9]: 12.9%
Freeze-thaw stability (RSD/%) [2, 10]: 1.1%
Freeze-thaw stability (RSD/%) [2, 11]: 10.3%
